Test results: patent publication US20240254119A1 (THIRD HARMONIC BIO, INC., priority 2022, published 2024)

What follows are compounds tested against T1, wtKIT (Homo sapiens, UniProt P10721) (assay: HTRF biochemical assay, wtKIT (phosphorylation of a peptide substrate)). Conditions: Table 4.
T1 construct: 1888289AM in the reaction mixtures
Procedure: Exemplary compounds were tested for ability to inhibit the phosphorylation of a peptide substrate by the tyrosine kinase wt KIT, PDGFRα, or CSF-1R. Assay procedures and results are described below.
Enzyme, substrate, and cofactors (ATP and Mn^2+) are combined in a well of a microtiter plate and incubated for 3 hours at 25° C. At the end of the incubation, the reaction is quenched by the addition of an EDTA-containing buffer.
The substrate used in the CSF-1R and PDGFRα assay is FAM-[…]-CONH2 (FAM is carboxyfluorescein). Peptide should be >95% purity. The substrate for the KIT assay is FAM-[…]-NH2.
• 1. To a well of a 384-wellplate add 5 μL of 2× enzyme buffer (or control). • 2. Add 100 nL of 100× compound. Enzyme and compound may be pre-incubated at this time if desired. • 3. Add 5 μL of 2× substrate buffer. • 4. Incubate plate at 25° C. for 3 hours. • 5. Add 10 uL of anti-phosphotyrosine antibody buffer. • 6. Read plate in BioTek Synergy Reader. Reaction Conditions for wtKIT Assay
• 100 mM HEPES, pH 7.5 0.1% BSA • 0.01% Triton x-100 • 1 mM DTT • 10 mM MnCl2 • 10 μM Sodium Orthovanadate • 10 μM Beta-Glycerophosphate • 400 μM ATP • 1% DMSO (from compound) • 1 μM FAM-[…]-CONH2, 5.0 nM wtKIT Enzyme (1888289AM)* • *Specific activity may vary from lot to lot. Enzyme concentration may need to be adjusted to yield 10-20% conversion of substrate to product.

T1 sequence (P10721 26-976): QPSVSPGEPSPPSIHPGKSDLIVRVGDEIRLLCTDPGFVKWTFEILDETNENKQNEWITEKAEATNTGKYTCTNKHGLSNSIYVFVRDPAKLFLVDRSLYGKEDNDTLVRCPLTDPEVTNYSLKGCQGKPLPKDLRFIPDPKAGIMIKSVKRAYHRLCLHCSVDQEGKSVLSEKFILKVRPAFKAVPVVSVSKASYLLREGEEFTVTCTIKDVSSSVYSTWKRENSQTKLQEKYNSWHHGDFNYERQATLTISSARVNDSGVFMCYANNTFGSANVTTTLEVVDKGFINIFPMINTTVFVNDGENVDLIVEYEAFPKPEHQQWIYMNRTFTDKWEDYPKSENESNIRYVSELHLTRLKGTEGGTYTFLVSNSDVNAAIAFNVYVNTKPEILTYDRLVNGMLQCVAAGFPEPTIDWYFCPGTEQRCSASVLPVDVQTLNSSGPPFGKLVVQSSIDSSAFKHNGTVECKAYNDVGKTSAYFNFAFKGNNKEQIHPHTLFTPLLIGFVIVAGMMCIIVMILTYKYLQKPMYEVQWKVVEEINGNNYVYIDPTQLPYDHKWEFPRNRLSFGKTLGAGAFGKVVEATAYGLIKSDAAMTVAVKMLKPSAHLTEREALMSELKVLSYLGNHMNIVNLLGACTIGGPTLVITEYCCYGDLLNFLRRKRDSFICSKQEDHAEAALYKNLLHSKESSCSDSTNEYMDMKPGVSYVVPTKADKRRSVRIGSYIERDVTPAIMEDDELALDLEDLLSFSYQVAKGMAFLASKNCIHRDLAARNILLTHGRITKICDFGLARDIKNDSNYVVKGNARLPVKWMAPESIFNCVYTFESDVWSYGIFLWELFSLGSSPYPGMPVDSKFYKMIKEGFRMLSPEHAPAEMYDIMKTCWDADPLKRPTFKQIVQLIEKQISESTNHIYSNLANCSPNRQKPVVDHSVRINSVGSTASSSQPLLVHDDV

| SMILES | IC50 [nM] |
| --- | --- |
| Cc1ccc(-c2noc([C@H]3C[C@@H]3F)n2)cc1NC(=O)c1cnc2cc(COC[C@@H](O)C(F)F)ccn12 [Compound I-500, 7-(((R)-3,3-difluoro-2-hydroxypropoxy)methyl)-N-(5-(5-((1R,2S)-2-fluorocyclopropyl)-1,2,4-oxadiazol-3-yl)-2-methylphenyl)imidazo[1,2-a]pyridine-3-carboxamide] | ≤ 50 |
| Cc1ccc(-c2noc([C@H]3C[C@@H]3F)n2)cc1NC(=O)c1cnc2cc(COC[C@H](O)C(F)F)ccn12 [Compound I-501, 7-(((S)-3,3-difluoro-2-hydroxypropoxy)methyl)-N-(5-(5-((1R,2S)-2-fluorocyclopropyl)-1,2,4-oxadiazol-3-yl)-2-methylphenyl)imidazo[1,2-a]pyridine-3-carboxamide] | ≤ 50 |
| Cc1ccc(-c2noc([C@H]3C[C@@H]3F)n2)cc1NC(=O)c1cnn2cc(CCOCCO)ccc12 [Compound I-503, N-(5-(5-((1R,2S)-2-fluorocyclopropyl)-1,2,4-oxadiazol-3-yl)-2-methylphenyl)-6-(2-(2-hydroxyethoxy)ethyl)pyrazolo[1,5-a]pyridine-3-carboxamide] | ≤ 50 |
| Cc1ccc(-c2noc([C@H]3C[C@@H]3F)n2)cc1NC(=O)c1cnc2cc(C/C=C/OCCO)ccn12 [Compound I-506, N-[5-[5-[(1R,2S)-2-fluorocyclopropyl]-1,2,4-oxadiazol-3-yl]-2-methyl-phenyl]-7-[(E)-3-(2-hydroxyethoxy)allyl]imidazo[1,2-a]pyridine-3-carboxamide] | ≤ 50 |
| Cc1ccc(-c2noc(CC(O)c3ccccc3)n2)cc1NC(=O)c1cnc2ccccn12 (stereo not shown) [Compound I-517, N-(5-(5-(2-hydroxy-2-phenylethyl)-1,2,4-oxadiazol-3-yl)-2-methylphenyl)imidazo[1,2-a]pyridine-3-carboxamide] | ≤ 50 |
| Cc1ccc(-c2noc(C3CC(F)(F)C3)n2)cc1NC(=O)c1cnn2ccccc12 [Compound I-518, methyl N-(5-(5-(3,3-difluorocyclobutyl)-1,2,4-oxadiazol-3-yl)-2-methylphenyl)pyrazolo[1,5-a]pyridine-3-carboxamide] | ≤ 50 |
| Cc1ccc(-c2noc(CC(O)C(C)(C)C)n2)cc1NC(=O)c1cnc2ccccn12 (stereo not shown) [Compound I-519] | ≤ 50 |
| Cc1ccc(-c2noc(C3CC(F)(F)C3)n2)cc1NC(=O)c1cnc2cc(COCC(C)(C)O)ccn12 [Compound I-521, N-(5-(5-(3,3-difluorocyclobutyl)-1,2,4-oxadiazol-3-yl)-2-methylphenyl)-7-((2-hydroxy-2-methylpropoxy)methyl)imidazo[1,2-a]pyridine-3-carboxamide] | ≤ 50 |
| Cc1ccc(-c2noc(CC(O)C(C)C)n2)cc1NC(=O)c1cnc2ccccn12 (stereo not shown) [Compound I-525, N-(5-(5-(2-hydroxy-3-methylbutyl)-1,2,4-oxadiazol-3-yl)-2-methylphenyl)imidazo[1,2-a]pyridine-3-carboxamide] | ≤ 50 |
| CCC(O)Cc1nc(-c2ccc(C)c(NC(=O)c3cnc4ccccn34)c2)no1 (stereo not shown) [Compound I-526] | ≤ 50 |
| COCC(O)Cc1nc(-c2ccc(C)c(NC(=O)c3cnc4ccccn34)c2)no1 (stereo not shown) [Compound I-528] | 50 to 500 |
| Cc1ccc(-c2noc([C@H]3C[C@@H]3F)n2)cc1NC(=O)c1cnc2cc(-c3ccn(C)n3)ccn12 [Compound I-529, N-(5-(5-((1R,2S)-2-fluorocyclopropyl)-1,2,4-oxadiazol-3-yl)-2-methylphenyl)-7-(1-methyl-1H-pyrazol-3-yl)imidazo[1,2-a]pyridine-3-carboxamide] | ≤ 50 |
| Cc1nc(-c2ccc(C)c(NC(=O)c3cnc4cc(-c5ccn(C)n5)ccn34)c2)no1 [Compound I-530, 7-(1-methyl-1H-pyrazol-3-yl)-N-(2-methyl-5-(5-methyl-1,2,4-oxadiazol-3-yl)phenyl)imidazo[1,2-a]pyridine-3-carboxamide] | ≤ 50 |
| Cc1ccc(-c2noc([C@H]3C[C@@H]3F)n2)cc1NC(=O)c1cnc2ccc(-c3ccn(C)n3)cn12 [Compound I-531, N-(5-(5-((1R,2S)-2-fluorocyclopropyl)-1,2,4-oxadiazol-3-yl)-2-methylphenyl)-6-(1-methyl-1H-pyrazol-3-yl)imidazo[1,2-a]pyridine-3-carboxamide] | ≤ 50 |
| Cc1nc(-c2ccc(C)c(NC(=O)c3cnc4ccc(-c5ccn(C)n5)cn34)c2)no1 [Compound I-532, 6-(1-methyl-1H-pyrazol-3-yl)-N-(2-methyl-5-(5-methyl-1,2,4-oxadiazol-3-yl)phenyl)imidazo[1,2-a]pyridine-3-carboxamide] | ≤ 50 |
| COc1ccn2c(C(=O)Nc3cc(-c4noc(C)n4)ccc3C)cnc2c1 [Compound I-533, 7-methoxy-N-(2-methyl-5-(5-methyl-1,2,4-oxadiazol-3-yl)phenyl)imidazo[1,2-a]pyridine-3-carboxamide] | ≤ 50 |
| Cc1nc(-c2ccc(C)c(NC(=O)c3cnn4cc(-c5ccn(C)n5)ccc34)c2)no1 [Compound I-535, 6-(1-methyl-1H-pyrazol-3-yl)-N-(2-methyl-5-(5-methyl-1,2,4-oxadiazol-3-yl)phenyl)pyrazolo[1,5-a]pyridine-3-carboxamide] | ≤ 50 |

The remaining lines, values ahead:

| IC50 [nM] | SMILES |
| --- | --- |
| ≤ 50 | COc1ccn2c(C(=O)Nc3cc(-c4noc(-c5ccccn5)n4)ccc3C)cnc2c1 [Compound I-536, 7-methoxy-N-(2-methyl-5-(5-(pyridin-2-yl)-1,2,4-oxadiazol-3-yl)phenyl)imidazo[1,2-a]pyridine-3-carboxamide] |
| ≤ 50 | COc1ccn2c(C(=O)Nc3cc(-c4noc(Cc5ccc(C)cc5)n4)ccc3C)cnc2c1 [Compound I-537, 7-methoxy-N-(2-methyl-5-(5-(4-methylbenzyl)-1,2,4-oxadiazol-3-yl)phenyl)imidazo[1,2-a]pyridine-3-carboxamide] |
| 50 to 500 | Cc1ccc(-c2noc(C3CC(O)(C(F)F)C3)n2)cc1NC(=O)c1cnc2ccccn12 (stereo not shown) [Compound I-538] |
| ≤ 50 | Cc1ccn2c(C(=O)Nc3cc(-c4noc(C5CCCCC5)n4)ccc3C)cnc2c1 [Compound I-539] |
| ≤ 50 | Cc1ccn2c(C(=O)Nc3cc(-c4noc(C5CCC(F)(F)CC5)n4)ccc3C)cnc2c1 [Compound I-540, 4 N-(5-(5-(4,4-difluorocyclohexyl)-1,2,4-oxadiazol-3-yl)-2-methylphenyl)-7-methylimidazo[1,2-a]pyridine-3-carboxamide] |
| ≤ 50 | Cc1ccc(-c2noc([C@H]3C[C@@H]3F)n2)cc1NC(=O)c1cnc2ccc(-c3cscn3)cn12 [Compound I-541, N-(5-(5-((1R,2S)-2-fluorocyclopropyl)-1,2,4-oxadiazol-3-yl)-2-methylphenyl)-6-(thiazol-4-yl)imidazo[1,2-a]pyridine-3-carboxamide] |
| ≤ 50 | Cc1nc(-c2ccc(C)c(NC(=O)c3cnc4ccc(-c5cscn5)cn34)c2)no1 [Compound I-542, N-(2-methyl-5-(5-methyl-1,2,4-oxadiazol-3-yl)phenyl)-6-(thiazol-4-yl)imidazo[1,2-a]pyridine-3-carboxamide] |
| 50 to 500 | Cc1ccc(-c2noc(CC(O)CN3CCOCC3)n2)cc1NC(=O)c1cnc2ccccn12 (stereo not shown) [Compound I-543] |
| 50 to 500 | Cc1ccc(-c2nc(-c3ccc(C)c(NC(=O)c4cnc5cc(C)ccn45)c3)no2)nc1 [Compound I-544] |
| 50 to 500 | Cc1ccn2c(C(=O)Nc3cc(-c4noc(-c5ccnnc5)n4)ccc3C)cnc2c1 [Compound I-546] |
| ≤ 50 | Cc1ccc(-c2noc([C@H]3C[C@@H]3F)n2)cc1NC(=O)c1cnc2cc(-c3cscn3)ccn12 [Compound I-547, N-(5-(5-((1R,2S)-2-fluorocyclopropyl)-1,2,4-oxadiazol-3-yl)-2-methylphenyl)-7-(thiazol-4-yl)imidazo[1,2-a]pyridine-3-carboxamide] |
| ≤ 50 | Cc1nc(-c2ccc(C)c(NC(=O)c3cnc4cc(-c5cscn5)ccn34)c2)no1 [Compound I-548, N-(2-methyl-5-(5-methyl-1,2,4-oxadiazol-3-yl)phenyl)-7-(thiazol-4-yl)imidazo[1,2-a]pyridine-3-carboxamide] |
| ≤ 50 | Cc1ccnc(-c2nc(-c3ccc(C)c(NC(=O)c4cnc5cc(C)ccn45)c3)no2)c1 [Compound I-549, 7-methyl-N-(2-methyl-5-(5-(4-methylpyridin-2-yl)-1,2,4-oxadiazol-3-yl)phenyl)imidazo[1,2-a]pyridine-3-carboxamide] |
| 50 to 500 | Cc1ccn2c(C(=O)Nc3cc(-c4noc(-c5cccnn5)n4)ccc3C)cnc2c1 [Compound I-550] |
| ≤ 50 | Cc1ccn2c(C(=O)Nc3cc(-c4noc(-c5nc(C)oc5C)n4)ccc3C)cnc2c1 [Compound I-551] |
| ≤ 50 | COc1ccn2c(C(=O)Nc3cc(-c4noc(Cc5ccccc5)n4)ccc3C)cnc2c1 [Compound I-552, N-(5-(5-benzyl-1,2,4-oxadiazol-3-yl)-2-methylphenyl)-7-methoxyimidazo[1,2-a]pyridine-3-carboxamide] |
| ≤ 50 | Cc1ccn2c(C(=O)Nc3cc(-c4noc(CC5CCCO5)n4)ccc3C)cnc2c1 (stereo not shown) [Compound I-553, 7-methyl-N-(2-methyl-5-(5-((tetrahydrofuran-2-yl)methyl)-1,2,4-oxadiazol-3-yl)phenyl)imidazo[1,2-a]pyridine-3-carboxamide] |
